Measured values published in ChEMBL document CHEMBL1141416, “Discovery of a potent and selective prostaglandin D2 receptor antagonist, [(3R)-4-(4-chloro-benzyl)-7-fluoro-5-(methylsulfonyl)-1,2,3,4-tetrahydrocyclopenta[b]indol-3-yl]-acetic acid (MK-0524)” (J Med Chem, 2007).

Columns and labels:
[1] = target: T1, Prostaglandin D2 receptor (Homo sapiens, UniProt Q13258); assay: Activity at human DP receptor in washed platelets assessed as inhibition of PGD2-induced cAMP accumulation; format: functional
T1 sequence (Q13258 whole entry): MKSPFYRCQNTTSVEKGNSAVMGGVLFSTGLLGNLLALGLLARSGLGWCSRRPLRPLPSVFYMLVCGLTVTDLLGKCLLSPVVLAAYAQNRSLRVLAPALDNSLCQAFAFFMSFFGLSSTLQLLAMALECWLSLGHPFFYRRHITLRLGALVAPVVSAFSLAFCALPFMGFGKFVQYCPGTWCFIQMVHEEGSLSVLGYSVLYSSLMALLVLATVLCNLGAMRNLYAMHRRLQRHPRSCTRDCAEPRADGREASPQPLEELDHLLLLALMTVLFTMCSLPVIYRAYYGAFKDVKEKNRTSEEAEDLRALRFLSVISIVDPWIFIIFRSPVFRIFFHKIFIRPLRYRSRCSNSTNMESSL

[2] = target: T1, Prostaglandin D2 receptor; assay: Binding affinity to human DP receptor expressed in HEK293 cells; format: cell-based
[3] = Metabolic stability in rat hepatocytes after 2 hrs at 50 uM; format: ADME, cell-based, Hepatocyte; settings: read-out: Stability
Prostacyclin receptor = Prostacyclin receptor (Homo sapiens, UniProt P43119); assay: Binding affinity to human IP receptor expressed in HEK293 cells; format: cell-based
Prostacyclin receptor, sequence (P43119 whole entry): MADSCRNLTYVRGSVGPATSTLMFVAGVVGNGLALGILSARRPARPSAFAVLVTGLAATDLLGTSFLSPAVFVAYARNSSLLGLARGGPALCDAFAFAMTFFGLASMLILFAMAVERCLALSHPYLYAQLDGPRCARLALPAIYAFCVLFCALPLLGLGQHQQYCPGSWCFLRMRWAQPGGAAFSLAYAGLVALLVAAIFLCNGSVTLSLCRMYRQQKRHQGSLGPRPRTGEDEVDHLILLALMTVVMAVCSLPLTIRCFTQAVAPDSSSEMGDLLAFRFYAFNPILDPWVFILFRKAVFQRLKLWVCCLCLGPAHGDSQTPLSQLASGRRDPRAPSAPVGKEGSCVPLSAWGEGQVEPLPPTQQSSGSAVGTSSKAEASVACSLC

[4] = target: T2, Prostaglandin E2 receptor EP3 subtype (Homo sapiens, UniProt P43115); assay: Binding affinity to human EP3 receptor expressed in HEK293 cells; format: cell-based
T2 sequence (P43115 whole entry): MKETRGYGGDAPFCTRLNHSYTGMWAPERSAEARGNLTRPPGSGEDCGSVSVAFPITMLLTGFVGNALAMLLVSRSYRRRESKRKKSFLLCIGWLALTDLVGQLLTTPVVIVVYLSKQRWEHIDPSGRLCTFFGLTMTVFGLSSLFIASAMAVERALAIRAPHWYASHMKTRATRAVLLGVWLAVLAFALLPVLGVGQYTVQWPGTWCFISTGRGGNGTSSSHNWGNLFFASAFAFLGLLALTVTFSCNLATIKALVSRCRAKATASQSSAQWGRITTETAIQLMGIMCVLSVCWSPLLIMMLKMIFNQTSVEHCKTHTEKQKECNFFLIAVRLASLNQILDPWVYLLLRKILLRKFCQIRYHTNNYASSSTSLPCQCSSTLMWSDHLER

[5] = target: Prostaglandin F2-alpha receptor (Homo sapiens, UniProt P43088); assay: Binding affinity to human FP receptor expressed in HEK293 cells; format: cell-based
Prostaglandin F2-alpha receptor, sequence (P43088 whole entry): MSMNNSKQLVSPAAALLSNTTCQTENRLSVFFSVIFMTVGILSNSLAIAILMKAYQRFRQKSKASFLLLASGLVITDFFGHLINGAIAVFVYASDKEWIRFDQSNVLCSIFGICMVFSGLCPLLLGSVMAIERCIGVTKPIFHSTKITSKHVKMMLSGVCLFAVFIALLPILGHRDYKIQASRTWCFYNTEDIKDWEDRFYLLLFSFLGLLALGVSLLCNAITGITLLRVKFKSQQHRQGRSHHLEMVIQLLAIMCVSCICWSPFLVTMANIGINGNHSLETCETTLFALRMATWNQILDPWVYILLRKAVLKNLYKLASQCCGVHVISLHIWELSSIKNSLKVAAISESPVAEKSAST

[6] = target: Prostaglandin E2 receptor EP2 subtype (Homo sapiens, UniProt P43116); assay: Binding affinity to human EP2 receptor expressed in HEK293 cells; format: cell-based
Prostaglandin E2 receptor EP2 subtype, sequence (P43116 whole entry): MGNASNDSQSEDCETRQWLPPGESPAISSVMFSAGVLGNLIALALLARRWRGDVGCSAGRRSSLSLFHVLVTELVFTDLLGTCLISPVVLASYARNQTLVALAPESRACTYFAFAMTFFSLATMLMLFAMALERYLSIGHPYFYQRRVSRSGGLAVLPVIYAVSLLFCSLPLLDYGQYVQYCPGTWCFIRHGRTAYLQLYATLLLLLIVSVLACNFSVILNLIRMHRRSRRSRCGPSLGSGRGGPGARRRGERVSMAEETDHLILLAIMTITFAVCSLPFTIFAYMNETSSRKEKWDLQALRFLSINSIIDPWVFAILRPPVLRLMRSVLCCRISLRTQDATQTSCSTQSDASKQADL

[7] = target: T3, Prostaglandin E2 receptor EP1 subtype (Homo sapiens, UniProt P34995); assay: Binding affinity to human EP1 receptor expressed in HEK293 cells; format: cell-based
T3 sequence (P34995 whole entry): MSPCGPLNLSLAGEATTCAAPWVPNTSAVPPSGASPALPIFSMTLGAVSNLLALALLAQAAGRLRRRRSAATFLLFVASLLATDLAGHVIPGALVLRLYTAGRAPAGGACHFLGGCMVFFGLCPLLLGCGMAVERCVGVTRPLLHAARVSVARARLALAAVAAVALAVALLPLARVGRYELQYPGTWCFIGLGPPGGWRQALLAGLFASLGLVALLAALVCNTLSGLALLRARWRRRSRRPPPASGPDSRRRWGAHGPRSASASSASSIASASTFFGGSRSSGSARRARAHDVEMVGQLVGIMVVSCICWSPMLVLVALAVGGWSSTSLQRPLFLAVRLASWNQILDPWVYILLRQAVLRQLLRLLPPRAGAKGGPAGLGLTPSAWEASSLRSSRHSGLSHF

[8] = target: T1, Prostaglandin D2 receptor; assay: Activity at human DP receptor in platelet rich plasma assessed as inhibition of PGD2-induced cAMP accumulation; format: functional
Thromboxane A2 receptor = target: T4, Thromboxane A2 receptor (Homo sapiens, UniProt P21731); assay: Binding affinity to human TP receptor expressed in HEK293 cells; format: cell-based
T4 sequence (P21731 whole entry): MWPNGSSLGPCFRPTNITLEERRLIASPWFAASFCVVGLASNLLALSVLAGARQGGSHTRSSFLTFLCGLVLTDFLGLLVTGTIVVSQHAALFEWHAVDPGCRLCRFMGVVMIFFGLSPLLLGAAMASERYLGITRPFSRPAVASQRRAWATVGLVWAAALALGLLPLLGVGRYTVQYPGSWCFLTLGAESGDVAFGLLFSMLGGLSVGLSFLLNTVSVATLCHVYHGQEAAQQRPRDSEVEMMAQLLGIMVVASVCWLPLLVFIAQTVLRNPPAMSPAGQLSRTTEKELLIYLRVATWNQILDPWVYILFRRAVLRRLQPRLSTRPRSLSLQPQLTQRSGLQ

[9] = target: Prostaglandin E2 receptor EP4 subtype (Homo sapiens, UniProt P35408); assay: Binding affinity to human EP4 receptor expressed in HEK293 cells; format: cell-based
Prostaglandin E2 receptor EP4 subtype, sequence (P35408 whole entry): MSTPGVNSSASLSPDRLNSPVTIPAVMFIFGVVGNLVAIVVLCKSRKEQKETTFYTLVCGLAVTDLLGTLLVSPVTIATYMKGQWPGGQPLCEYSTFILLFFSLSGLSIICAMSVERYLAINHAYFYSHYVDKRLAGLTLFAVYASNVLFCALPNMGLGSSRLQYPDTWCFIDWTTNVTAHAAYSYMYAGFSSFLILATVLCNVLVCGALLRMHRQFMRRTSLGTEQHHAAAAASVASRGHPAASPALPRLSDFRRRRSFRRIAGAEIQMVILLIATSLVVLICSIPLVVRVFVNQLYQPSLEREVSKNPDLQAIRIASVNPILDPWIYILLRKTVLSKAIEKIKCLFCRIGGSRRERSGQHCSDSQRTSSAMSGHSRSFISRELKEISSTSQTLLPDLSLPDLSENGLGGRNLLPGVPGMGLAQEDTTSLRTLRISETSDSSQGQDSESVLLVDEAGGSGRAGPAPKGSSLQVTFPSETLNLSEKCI

Rattus norvegicus [10] = assay: AUC (0-6hrs) in Sprague-Dawley rat at 100 mg/kg, po; format: ADME, organism-based, Plasma; parameters: time < 6 hr, dose 100 mg/kg, route oral; settings: in vivo
[11] = Cmax in Sprague-Dawley rat at 100 mg/kg, po; format: ADME, organism-based; parameters: dose 100 mg/kg, route oral; settings: in vivo
[12] = Cmax in Sprague-Dawley rat biliary fluid by bile duct cannulation study at 5 mg/kg, iv; format: ADME, organism-based; parameters: dose 5 mg/kg, route intravenous
Rattus norvegicus [13] = assay: (§1) Cmax in Sprague-Dawley rat after 6 hrs at 10 mg/kg, po; format: ADME, organism-based; parameters: dose 10 mg/kg, route oral; settings: in vivo, 6 h
[14] = Tmax in Sprague-Dawley rat biliary fluid by bile duct cannulation study at 5 mg/kg, iv; format: ADME, organism-based; parameters: dose 5 mg/kg, route intravenous
[15] = Plasma clearance in Sprague-Dawley rat at 10 mg/kg, po and 5 mg/kg, iv; format: ADME, organism-based; parameters: unit not given here
[16] = Cmax in Sprague-Dawley rat after 6 hrs at 100 mg/kg, po; format: ADME, organism-based; parameters: dose 100 mg/kg, route oral; settings: in vivo
Rattus norvegicus [17] = assay: AUC (0-6hrs) in Sprague-Dawley rat at 10 mg/kg, po; format: ADME, organism-based, Plasma; parameters: time < 6 hr, dose 10 mg/kg, route oral; settings: in vivo
[18] = Volume of distribution in Sprague-Dawley rat at 10 mg/kg, po and 5 mg/kg, iv; format: ADME, organism-based; settings: in vivo
[19] = Plasma half life in Sprague-Dawley rat at 5 mg/kg, iv; format: ADME, organism-based; parameters: dose 5 mg/kg, route intravenous
[20] = Cmax in Sprague-Dawley rat at 10 mg/kg, po; format: ADME, organism-based; parameters: dose 10 mg/kg, route oral; settings: in vivo
[21] = Bioavailability in Sprague-Dawley rat at 10 mg/kg, po and 5 mg/kg, iv; format: ADME, organism-based; settings: in vivo
Liver microsomes [22] = assay: Protein binding in rat liver microsomes in presence of NADPH after 1 hr at 10 uM; format: ADME, Microsome
Liver microsomes [23] = assay: Covalent protein binding in human liver microsomes in presence of NADPH after 1 hr at 10 uM; format: ADME, Microsome
Hepatocyte [24] = assay: Protein binding in human hepatocyte after 2 hrs at 10 uM; format: ADME, cell-based; settings: hepatocytes
Hepatocyte [25] = assay: Covalent protein binding in rat hepatocyte after 2 hrs at 10 uM; format: ADME, cell-based; settings: hepatocytes
[26] = Activity at human TP receptor in platelet rich plasma assessed as inhibition […]-induced platelet aggregation
[27] = as §1; format: ADME, organism-based; parameters: dose 10 mg/kg, route oral; settings: Sprague-Dawley, in vivo

Q: With `CC(=O)c1cc(F)cc2c3c(n(Cc4ccc(Cl)cc4)c12)[C@@H](CC(=O)O)CC3` as the compound, how does the IC50 [1] read?
A: 0.00029 µM (antagonist)

Q: What about the Ki [2] of the same compound?
A: 0.0011 µM (antagonist)

Q: And the remaining at 2 h, 50 µM [3]?
A: 35%

Q: And the Ki (Prostacyclin receptor)?
A: 14 µM

Q: And the Ki [4]?
A: 1.2 µM

Q: What about the Ki [5] of the same compound?
A: > 20 µM

Q: What about the Ki [6] of the same compound?
A: 0.31 µM (antagonist)

Q: And the Ki [7]?
A: > 9 µM

Q: And the IC50 [8]?
A: 0.015 µM (antagonist)

Q: And the Ki (Thromboxane A2 receptor)?
A: 0.014 µM (antagonist)

Q: And the Ki [9]?
A: > 20 µM

Q: For `CC(=O)c1cc(S(C)(=O)=O)cc2c3c(n(Cc4ccc(Cl)cc4)c12)[C@@H](CC(=O)[O-])CC3.[Na+]`, which AUC (Rattus norvegicus [10]) is on record?
A: 120 µM·h

Q: What about the Cmax [11] of the same compound?
A: 31 µM

Q: What about the Cmax [12] of the same compound?
A: 1100 µM

Q: And the Cmax (Rattus norvegicus [13])?
A: 0.6 µM

Q: What about the Tmax [14] of the same compound?
A: 0 h

Q: And the clearance [15]?
A: 14

Q: And the Cmax [16]?
A: 7 µM

Q: And the AUC (Rattus norvegicus [17])?
A: 30 µM·h

Q: And the Vdss [18]?
A: 0.7 Not_given

Q: What about the half-life [19] of the same compound?
A: 1.4 h

Q: What about the Cmax [20] of the same compound?
A: 21 µM

Q: And the bioavailability [21]?
A: 128%

Q: With `O=[14C](O)C[C@H]1CCc2c1n(Cc1ccc(Cl)cc1)c1c(Br)cc(F)cc21` as the compound, how does the Activity (Liver microsomes [22]) read?
A: 460 pmol/mg/h

Q: What about the Activity (Liver microsomes [23]) of the same compound?
A: 33 pmol/mg/h

Q: And the Activity (Hepatocyte [24])?
A: 33 pmol/mg/h

Q: And the Activity (Hepatocyte [25])?
A: 74 pmol/mg/h

Q: With `[3H]C([3H])([3H])S(=O)(=O)c1cc(C(C)O)c2c(c1)c1c(n2Cc2ccc(Cl)cc2)[C@@H](CC(=O)O)CC1` (stereo partly specified) as the compound, how does the Activity (Liver microsomes [22]) read?
A: 13 pmol/mg/h

Q: And the Activity (Liver microsomes [23])?
A: 9 pmol/mg/h

Q: And the Activity (Hepatocyte [24])?
A: < 5 pmol/mg/h

Q: What about the Activity (Hepatocyte [25]) of the same compound?
A: 9 pmol/mg/h

Q: What does the source list for `CC(O)c1cc(S(C)(=O)=O)cc2c3c(n(Cc4ccc(Cl)cc4)c12)[C@@H](CC(=O)O)CC3` (stereo partly specified)?
A: remaining at 2 h, 50 µM [3]: 100%; Ki [9]: > 20 µM; IC50 [26]: 43 µM

Q: With `O=C([O-])C[C@H]1CCc2c1n(Cc1ccc(Cl)cc1)c1c(Br)cc(F)cc21.[Na+]` as the compound, how does the Cmax [12] read?
A: 29 µM

Q: What about the Cmax [27] of the same compound?
A: 3.7 µM

Q: What about the Tmax [14] of the same compound?
A: 1 h

Q: What about the clearance [15] of the same compound?
A: 1.4

Q: And the Vdss [18]?
A: 0.4 Not_given

Q: And the half-life [19]?
A: 12 h

Q: And the Cmax [20]?
A: 10 µM

Q: What about the bioavailability [21] of the same compound?
A: 41%

Q: Which Activity (Liver microsomes [22]) does the source give for `[3H]C([3H])([3H])S(=O)(=O)c1cc(C(C)=O)c2c(c1)c1c(n2Cc2ccc(Cl)cc2)[C@@H](CC(=O)O)CC1` here?
A: 23 pmol/mg/h

Q: What about the Activity (Liver microsomes [23]) of the same compound?
A: 18 pmol/mg/h

Q: And the Activity (Hepatocyte [24])?
A: 5 pmol/mg/h

Q: And the Activity (Hepatocyte [25])?
A: 8 pmol/mg/h
